Experimental data: publication PMC4838840 (2016)

Key:
[1] = tested on: TRF2 (RNA, G4) CGGGAGGGCGGGGAGGGC; experiment: fluorescence titration; conditions: 40 mM K+; 20 mM Tris HCl pH 7.0, 25 °C, 2 μM ThT, 1:1 fit
[2] = tested on: BCL-2 (DNA) (DNA, G4) AGGGGGCCGTGGGGTGGGAGCTGGGG; experiment: fluorescence enhancement; conditions: 40 mM K+; 20 mM Tris HCl pH 7.0; F/F0 458-fold
[3] = tested on: tRNA-Ala fragment (RNA, G4) GGGGGUGUAGCUCAGUGGUAGAGCGCGUGC; experiment: fluorescence enhancement; conditions: 40 mM K+; 20 mM Tris HCl pH 7.0, 2 μM ThT, 4 μM RNA; F/F0 88-fold
[4] = tested on: HP18 (DNA) (DNA, hairpin) CAGTACAGATCTGTACTG; experiment: fluorescence enhancement; conditions: 40 mM K+; 20 mM Tris HCl pH 7.0; F/F0 36-fold
[5] = tested on: ssAf20 (RNA) (RNA, single strand) CAAUUGUAUAUAUUCG; experiment: fluorescence titration; conditions: 40 mM K+; 20 mM Tris HCl pH 7.0, 25 °C, 2 μM ThT, 1:1 fit
[6] = tested on: C9orf72 (DNA) (DNA, G4) GGGGCCGGGGCCGGGGCCGGGGCC; experiment: fluorescence enhancement; conditions: 40 mM K+; 20 mM Tris HCl pH 7.0; F/F0 252-fold
[7] = tested on: tRNA-Cys fragment (RNA, G4) GGGGGUAUAGCUCAGUGGUAGAGCAUUUGA; experiment: fluorescence enhancement; conditions: 40 mM K+; 20 mM Tris HCl pH 7.0, 2 μM ThT, 4 μM RNA; F/F0 57-fold
[8] = tested on: BCL-2 (RNA) (RNA, G4) AGGGGGCCGUGGGGUGGGAGCUGGGG; experiment: fluorescence titration; conditions: 40 mM K+; 20 mM Tris HCl pH 7.0, 25 °C, 2 μM ThT, 1:1 fit
[9] = tested on: ERSI (RNA, G4) GGGUAGGGGCAAAGGGGCUGGGG; experiment: fluorescence titration; conditions: 40 mM K+; 20 mM Tris HCl pH 7.0, 25 °C, 2 μM ThT, 1:1 fit
[10] = tested on: Tel22 (RNA) (RNA, G4) AGGGUUAGGGUUAGGGUUAGGG; experiment: fluorescence enhancement; conditions: 40 mM K+; 20 mM Tris HCl pH 7.0, 2 μM ThT, 4 μM RNA; F/F0 440-fold
[11] = tested on: dsAf16 (DNA) (DNA, duplex) CTTAATTGTATATATTCGCGAATATATACAATTAAG; experiment: fluorescence enhancement; conditions: 40 mM K+; 20 mM Tris HCl pH 7.0; F/F0 65-fold
[12] = tested on: Bulges-TB1 (RNA, G4) UUGUGGUGGGUGGGUGGGU; experiment: fluorescence enhancement; conditions: 40 mM K+; 20 mM Tris HCl pH 7.0, 2 μM ThT, 4 μM RNA; F/F0 196-fold
[13] = tested on: C9orf72 (RNA) (RNA, G4) GGGGCCGGGGCCGGGGCCGGGGCC; experiment: fluorescence titration; conditions: 40 mM K+; 20 mM Tris HCl pH 7.0, 25 °C, 2 μM ThT, 1:1 fit
[14] = tested on: Tel22 (DNA) (DNA, G4) AGGGTTAGGGTTAGGGTTAGGG; experiment: fluorescence enhancement; conditions: 40 mM K+; 20 mM Tris HCl pH 7.0; F/F0 1339-fold
[15] = tested on: dsAf16 (RNA) (RNA, duplex) CUUAAUUGUAUAUAUUCGCGAAUAUAUACAAUUAAG; experiment: fluorescence titration; conditions: 40 mM K+; 20 mM Tris HCl pH 7.0, 25 °C, 2 μM ThT, 1:1 fit
[16] = tested on: ZIC1 (RNA, G4) GGGUGGGGGGGGCGGGGGAGGCCGGGG; experiment: fluorescence titration; conditions: 40 mM K+; 20 mM Tris HCl pH 7.0, 25 °C, 2 μM ThT, 1:1 fit
[17] = tested on: ADAM10 (RNA, G4) GGGGGACGGGUAGGGGCGGGAGGUAGGGG; experiment: fluorescence titration; conditions: 40 mM K+; 20 mM Tris HCl pH 7.0, 25 °C, 2 μM ThT, 1:1 fit
[18] = tested on: ssAf20 (DNA) (DNA, single strand) CAATTGTATATATTCG; experiment: fluorescence enhancement; conditions: 40 mM K+; 20 mM Tris HCl pH 7.0; F/F0 59-fold
[19] = tested on: ssAf22 (RNA, single strand) UGAGCUUAAUUGUAUAUAUUCG; experiment: fluorescence titration; conditions: 40 mM K+; 20 mM Tris HCl pH 7.0, 25 °C, 2 μM ThT, 1:1 fit
[20] = tested on: HP18 (RNA) (RNA, hairpin) CAGUACAGAUCUGUACUG; experiment: fluorescence titration; conditions: 40 mM K+; 20 mM Tris HCl pH 7.0, 25 °C, 2 μM ThT, 1:1 fit
[21] = tested on: VEGF (RNA, G4) GGAGGAGGGGGAGGAGGA; experiment: fluorescence titration; conditions: 40 mM K+; 20 mM Tris HCl pH 7.0, 25 °C, 2 μM ThT, 1:1 fit
[22] = tested on: Spinach (RNA, aptamer) GCAGCCGGCUUGUUGAGUAGAGUGUGAGCUCCGUAACUGGUCGCGUC/GACGCGACCGAAUGAAAUGGUGAAGGACGGGUCCAGCCGGCUGC; experiment: fluorescence enhancement; conditions: 40 mM K+; 20 mM Tris HCl pH 7.0, 2 μM ThT, 4 μM RNA; F/F0 487-fold

- K [1]: (0.62 ± 0.61) × 10^5 M^-1
- binding [2]: yes
- binding [3]: yes
- binding [4]: yes
- K [5]: (9.37 ± 1.28) × 10^4 M^-1
- binding [6]: yes
- binding [7]: yes
- K [8]: (2.93 ± 0.27) × 10^5 M^-1
- K [9]: (2.03 ± 0.12) × 10^5 M^-1
- binding [10]: yes
- binding [11]: yes
- binding [12]: yes
- K [13]: (1.92 ± 0.05) × 10^5 M^-1
- binding [14]: yes
- K [15]: (1.43 ± 1.01) × 10^5 M^-1
- K [16]: (0.56 ± 0.22) × 10^5 M^-1
- K [17]: (2.60 ± 0.12) × 10^5 M^-1
- binding [18]: yes
- K [19]: (5.53 ± 1.59) × 10^4 M^-1
- K [20]: (5.62 ± 1.94) × 10^4 M^-1
- K [21]: (1.24 ± 0.15) × 10^5 M^-1
- binding [22]: yes
Compound: Cc1ccc2c(c1)sc(-c1ccc(N(C)C)cc1)[n+]2C
